Some test systems named below: A498 renal; DU-145 prostate; MDA-MB-435; MOLT-4 leukemia; NCI-H23 lung; OVCAR-4 ovarian; SK-MEL-2 melanoma; SK-MEL-5 melanoma; SK-OV-3 ovarian; UO-31 renal.
Experiment in all cases: NCI-60 cell line screen, 48 h

Values joined by “and” are separate entries in the source; they are usually repeats but may differ in a detail not shown here. Identical values can stand only once.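 Grown in 96-well plates, cells were treated for 48 hours with each compound at five concentrations. Insufficient inhibition: endpoint recorded as highest concentration tested. The concentration for 50% growth inhibition is given as GI50. TGI marks complete inhibition of growth.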 A value given as a limit tells only on which side of the number the result lay.

On to `FC(F)(F)c1ccc(C#Cc2ccccc2C#Cc2ccccc2)cc1`, for which the GI50 was 29.3 µM in the experiment on A498 renal; 48 µM in the experiment on DU-145 prostate; 35.4 µM in the experiment with MDA-MB-435; 35 µM in the experiment with MOLT-4 leukemia; 49 µM in the experiment with NCI-H23 lung; 57.5 µM with OVCAR-4 ovarian. The GI50 in the experiment with SK-MEL-2 melanoma was 29.2 µM; in the experiment on SK-MEL-5 melanoma, 32.7 µM; in the experiment on SK-OV-3 ovarian it was 32.6 µM; with UO-31 renal it was 49.7 µM. The TGI in the experiment with A498 renal is 83.4 µM; in the experiment on DU-145 prostate it was over 100 µM; with MDA-MB-435, over 100 µM; in the experiment with MOLT-4 leukemia it was 87.2 µM; with NCI-H23 lung, over 100 µM; in the experiment with OVCAR-4 ovarian, over 100 µM. Also, the TGI in the experiment on SK-MEL-2 melanoma is 80 µM; with SK-MEL-5 melanoma, over 100 µM; in the experiment on SK-OV-3 ovarian it was over 100 µM; with UO-31 renal, over 100 µM.

As to `CC(=O)OCC(=O)[C@@]12OC(C)(C)O[C@@H]1C[C@H]1[C@@H]3CC=C4C[C@@H](O)CC[C@]4(C)[C@H]3CC[C@@]12C`, the TGI with A498 renal, in the experiment on DU-145 prostate, with MDA-MB-435, in the experiment on MOLT-4 leukemia, in the experiment on NCI-H23 lung and in the experiment with OVCAR-4 ovarian was over 100 µM each time. In addition, the TGI in the experiment with SK-MEL-2 melanoma, in the experiment with SK-MEL-5 melanoma, in the experiment on SK-OV-3 ovarian and with UO-31 renal was over 100 µM each time.

With `Cc1ccc2c(c1)C(C)Cc1c(Cl)ncnc1N2C` (stereo not drawn), the GI50 is 2.08 µM in the experiment with A498 renal; 4.21 µM in the experiment on DU-145 prostate; 2.23 µM with MDA-MB-435; 3.37 µM in the experiment with MOLT-4 leukemia; 3.29 µM in the experiment on NCI-H23 lung; 3.06 µM with OVCAR-4 ovarian. Moreover, the GI50 with SK-MEL-2 melanoma is 3.03 µM; with SK-MEL-5 melanoma, 1.86 µM; in the experiment with SK-OV-3 ovarian, 3.75 µM; with UO-31 renal, 3.03 µM. Besides, the TGI is 4.78 µM with A498 renal; 91.9 µM in the experiment on DU-145 prostate; 5.63 µM with MDA-MB-435; over 100 µM in the experiment on MOLT-4 leukemia; 22.7 µM in the experiment on NCI-H23 lung; over 100 µM in the experiment with OVCAR-4 ovarian. The TGI in the experiment with SK-MEL-2 melanoma was 8.1 µM; in the experiment with SK-MEL-5 melanoma, 3.41 µM; in the experiment on SK-OV-3 ovarian it was 31 µM; with UO-31 renal, 45.2 µM.

As for `O=C1C2C(c3ccccc3)NC(c3ccccc3)C1C(c1ccccc1)NC2c1ccccc1` (stereo not drawn), the TGI in the experiment with A498 renal, in the experiment on DU-145 prostate, in the experiment with MDA-MB-435, in the experiment with MOLT-4 leukemia, with NCI-H23 lung and with OVCAR-4 ovarian was over 100 µM throughout. Also, the TGI in the experiment with SK-MEL-2 melanoma, with SK-MEL-5 melanoma, in the experiment on SK-OV-3 ovarian and in the experiment on UO-31 renal was over 100 µM each time.

As for `O=c1oc2cc(N=Cc3ccc4c(c3)OCO4)ccc2c2ccccc12`, the TGI in the experiment with A498 renal, with DU-145 prostate, with MDA-MB-435, with MOLT-4 leukemia, in the experiment on NCI-H23 lung and in the experiment on OVCAR-4 ovarian was over 100 µM in each case. For the same compound, the TGI with SK-MEL-2 melanoma, with SK-MEL-5 melanoma, in the experiment on SK-OV-3 ovarian and in the experiment with UO-31 renal was over 100 µM throughout.

As to `NC1=C(c2nc(-c3ccccc3)cs2)C(c2ccc(Br)cc2)c2c(c3ccccc3oc2=O)O1` (stereo not drawn), the GI50 is 33.9 µg/mL with A498 renal; 128 µg/mL in the experiment on DU-145 prostate; over 150 µg/mL in the experiment on MDA-MB-435; 33 µg/mL with MOLT-4 leukemia; 71 µg/mL with NCI-H23 lung; 34.3 µg/mL with OVCAR-4 ovarian. In addition, the GI50 is 89 µg/mL in the experiment with SK-MEL-2 melanoma, over 150 µg/mL with SK-MEL-5 melanoma and 60.1 µg/mL in the experiment on SK-OV-3 ovarian. For the same compound, the TGI is over 150 µg/mL in the experiment with A498 renal; over 150 µg/mL with DU-145 prostate; over 150 µg/mL with MDA-MB-435; 118 µg/mL in the experiment on MOLT-4 leukemia; over 150 µg/mL in the experiment with NCI-H23 lung; 99.9 µg/mL with OVCAR-4 ovarian. In addition, the TGI in the experiment with SK-MEL-2 melanoma, in the experiment on SK-MEL-5 melanoma and in the experiment with SK-OV-3 ovarian was over 150 µg/mL in each case.

`Nc1nc(N)c2c(n1)NC(c1ccc(F)cc1)C1CCc3ccccc3C1=N2` (stereo not drawn): the GI50 is 2.87 µM in the experiment on A498 renal; 7.45 µM in the experiment on DU-145 prostate; 2.84 µM in the experiment with MDA-MB-435; 4.06 µM in the experiment on NCI-H23 lung; 3.98 µM in the experiment with OVCAR-4 ovarian; 5.73 µM in the experiment on SK-MEL-2 melanoma. Besides, the figures for the GI50 in the experiment on SK-MEL-5 melanoma, with SK-OV-3 ovarian and with UO-31 renal were 0.609 µM, 11.1 µM and 3.34 µM, respectively. The TGI in the experiment on A498 renal came to 9.08 µM; with DU-145 prostate, 19.8 µM; in the experiment on MDA-MB-435 it was 11.6 µM; in the experiment on NCI-H23 lung it was 16.6 µM; in the experiment on OVCAR-4 ovarian, 18.2 µM; with SK-MEL-2 melanoma it was 19.6 µM. Besides, the results for the TGI in the experiment on SK-MEL-5 melanoma, in the experiment on SK-OV-3 ovarian and with UO-31 renal were 2.21 µM, 23.3 µM and 17.3 µM, respectively.

Turning to `Oc1[nH]c2c(Br)cccc2c1C1=Nc2ccccc2/C1=N/OCCN1CCCC1`, the GI50 in the experiment on A498 renal was 0.739 µM and 1.34 µM; in the experiment on DU-145 prostate, 0.688 µM; with MDA-MB-435 it was 1.58 µM and 1.91 µM; in the experiment with MOLT-4 leukemia, 0.354 µM; in the experiment with NCI-H23 lung, 1.02 µM and 0.959 µM; in the experiment with OVCAR-4 ovarian it was 1.14 µM. The GI50 was 2.21 µM in the experiment on SK-MEL-2 melanoma; 1.06 µM and 0.751 µM in the experiment on SK-MEL-5 melanoma; 0.44 µM with UO-31 renal. Besides, the TGI in the experiment with A498 renal was 2.21 µM and 7.36 µM; in the experiment with DU-145 prostate it was 4.31 µM; with MDA-MB-435, over 100 µM; with MOLT-4 leukemia, 3.18 µM; in the experiment with NCI-H23 lung, 4.17 µM and 36.5 µM; in the experiment on OVCAR-4 ovarian it was 3.35 µM. In the experiment on UO-31 renal, this compound registered a TGI of 4.97 µM.

In the case of `CNC(=O)CC1NC(=O)c2csc(n2)-c2ccc(-c3nc(C4=NC(C(=O)N5CCCC5C(N)=O)CO4)cs3)nc2-c2csc(n2)-c2csc(n2)C(C(C)C)NC(=O)CNC(=O)c2csc(n2)C(C(C)C)NC(=O)c2nc1sc2C` (stereo not drawn), the GI50 was over 25 µM with A498 renal; over 25 µM in the experiment with DU-145 prostate; under 0.001 µM with MDA-MB-435; 1.63 µM with MOLT-4 leukemia; over 25 µM with NCI-H23 lung; over 25 µM with OVCAR-4 ovarian. In addition, the GI50 with SK-MEL-5 melanoma, in the experiment on SK-OV-3 ovarian and in the experiment on UO-31 renal was over 25 µM throughout. Besides, the TGI in the experiment on A498 renal was 5.08 µM and > 25 µM; in the experiment on DU-145 prostate, over 25 µM; in the experiment on MOLT-4 leukemia, over 25 µM; with OVCAR-4 ovarian, over 25 µM; with SK-MEL-5 melanoma, over 25 µM; in the experiment on SK-OV-3 ovarian it was 6.03 µM and > 25 µM. In the experiment with UO-31 renal, this compound yielded a TGI of over 25 µM.

For the origin of these results see PubChem BioAssay (NCI).
